Here are results for 6 compounds from paper PMC8815882, “Screening the pandemic response box identified benzimidazole carbamates, Olorofim and ravuconazole as promising drug candidates for the treatment of eumycetoma” (PLoS Neglected Tropical Diseases, 2022).

Molecules are shown by their SMILES. Converted amounts (≈) assume the structure as drawn. Read-outs that look alike come from different tables or passages of the source. Where only a bound is given, the exact number is not on record here.

The test system of test [1] is F. senegalensis strain CBS132257. The experiment in a line: CLSI M38-A2 based in vitro susceptibility screening at 25 μM. The format is cell-based, Falciformispora senegalensis. As to conditions: selected if >75% (resazurin) or >80% (XTT) fungal growth inhibited. A general note: The colour change of resazurin is a common sign of viable cells or microbes.
Test [2] deals with M. pseudomycetomatis strain Mex2A. The description is as above. The format is cell-based, Madurella pseudomycetomatis. Conditions: selected if >75% (resazurin) or >80% (XTT) fungal growth inhibited.
For test [3], the system named is M. mycetomatis genome strain MM55. Nature of the test: CLSI M38-A2 based in vitro susceptibility screening (XTT or resazurin), growth at fixed concentration. It counts as cell-based, Madurella mycetomatis. As to conditions: for Inhibits growth of Madurella mycetomatis at 25 μM: selected if >75% (resazurin) or >80% (XTT) fungal growth inhibited. For orientation: Formazan colour is commonly taken as a measure of viable cells.

Another test concerns M. mycetomatis MM55. Nature of the test: IC50 determination, 2-fold dilution series 16 to 0.03125 μM. The format is cell-based, Madurella mycetomatis. Conditions: for IC50 / IC90: Madurella mycetomatis.
Test [4] relates to M. tropicana strain CBS206.47. Nature of the test: CLSI M38-A2 based in vitro susceptibility screening at 25 μM. It counts as cell-based, Madurella tropicana. As to conditions: selected if >75% (resazurin) or >80% (XTT) fungal growth inhibited.
In test [5] the test system is Me. romeroi strain CBS128765. The test is described as above. Conditions: selected if >75% (resazurin) or >80% (XTT) fungal growth inhibited. The format is cell-based, Medicopsis romeroi.
The subject of the next test is M. mycetomatis. Nature of the test: Drug static or cidal. The format is cell-based, Madurella mycetomatis. An excerpt:
Supplement pntd.0010159.s001.xlsx, sheet "Pandemic Box Master sheet" | column: Drug static or cidal

The test system of test [6] is ten different M. mycetomatis isolates. The experiment in a line: MIC / MIC50 determination (XTT) in ten M. mycetomatis isolates. The format is cell-based, Madurella mycetomatis. As to conditions: Madurella mycetomatis.
[7] abbreviates: Madurella mycetomatis, mean of three replicates, read-out: Percentage survival at 25um, 25 uM mean.
The mark [8] stands for this setting: Madurella mycetomatis, replicate A, read-out: Percentage survival at 25um, 25 um A.
The mark [9] stands for this setting: Madurella mycetomatis, replicate B, read-out: Percentage survival at 25um, 25 uM B.
[10] abbreviates: Madurella mycetomatis, replicate C, read-out: Percentage survival at 25um, 25 uM C.
The mark [11] stands for this setting: Madurella mycetomatis, 100 uM, mean of three replicates, read-out: Percentage survival at 100um, 100 uM mean.
The mark [12] stands for this setting: MM55, replicate 1, read-out: IC50 1 um.
[13] abbreviates: MM55, replicate 1, read-out: IC90 1 um.
The mark [14] stands for this setting: MM55, replicate 2, read-out: IC50 2 um.
The mark [15] stands for this setting: MM55, replicate 2, read-out: IC90 2 um.
The mark [16] stands for this setting: MM55, replicate 3, read-out: IC50 3 um.
Where [17] appears, read: MM55, replicate 3, read-out: IC90 3 um.
Setting [18] is: Madurella mycetomatis, mean of replicates, read-out: Percentage survival at 25um, 25 uM mean.
The mark [19] stands for this setting: Madurella mycetomatis, 100 uM, mean of replicates, read-out: Percentage survival at 100um, 100 uM mean.
The mark [20] stands for this setting: Madurella mycetomatis, 100 uM, replicate 1, read-out: Percentage survival at 100um, 100 uM A.
The mark [21] stands for this setting: Madurella mycetomatis, 100 uM, replicate 2, read-out: Percentage survival at 100um, 100 uM A.
The mark [22] stands for this setting: Madurella mycetomatis, 100 uM, replicate 3, read-out: Percentage survival at 100um, 100 uM A.
[23] abbreviates: MM55, mean of replicates, read-out: IC50 mean.
The mark [24] stands for this setting: MM55, mean of replicates, read-out: IC90 mean.
The mark [25] stands for this setting: MM55, replicate 1, read-out: IC50 1.
[26] abbreviates: MM55, replicate 1, read-out: IC90 1.
[27] abbreviates: MM55, replicate 2, read-out: IC50 2.
Where [28] appears, read: MM55, replicate 2, read-out: IC90 2.
[29] abbreviates: MM55, replicate 3, read-out: IC50 3.
[30] abbreviates: MM55, replicate 3, read-out: IC90 3.
[31] abbreviates: Madurella mycetomatis, 100 uM, first replicate column, read-out: Percentage survival at 100um, 100 uM A.
Setting [32] is: Madurella mycetomatis, 100 uM, second replicate column, read-out: Percentage survival at 100um, 100 uM A.
[33] abbreviates: Madurella mycetomatis, 100 uM, third replicate column, read-out: Percentage survival at 100um, 100 uM A.

As for `CCC(C)NCC(O)Cn1c2ccc(Cl)cc2c2cc(Cl)ccc21` (stereo not drawn) [MMV1578570], the “Inhibits growth of Falciformispora senegalensis at 25 μM” value in test [1] is reported as “inhibit the growth”. The “Inhibits growth of Madurella pseudomycetomatis at 25 μM” value in test [2] was “inhibit the growth”. In test [3], the “Inhibits growth of Madurella mycetomatis at 25 μM” value is “inhibit the growth”. The activity at 25 µM is 7.02% in test [3] (setting [7]), 9.54% in test [3] (setting [8]), -1.08% in test [3] (setting [9]) and 12.6% in test [3] (setting [10]). In addition, the activity at 100 µM came to 3.38% in test [3] (setting [11]); 1.05% in test [3] (Madurella mycetomatis, 100 uM, replicate 1, read-out: Percentage survival at 100um, 100 uM A (first replicate column)); 5.34% in test [3] (Madurella mycetomatis, 100 uM, replicate 3, read-out: Percentage survival at 100um, 100 uM A (third replicate column)). For the same compound, the Percent fungal survival at 100 µM in test [3] (Madurella mycetomatis, 100 uM, replicate 2, read-out: Percentage survival at 100um, 100 uM A (second replicate column)) was 3.75%. Further, in the test with M. mycetomatis MM55, the “Drug static or cidal” value is reported as “Static”. For the same compound, the IC50 in the test with M. mycetomatis MM55 (MM55, mean of three replicates, read-out: IC50 mean) was 17.1 µM; with M. mycetomatis MM55 (setting [12]), 21.7 µM; with M. mycetomatis MM55 (setting [14]), 17.2 µM; with M. mycetomatis MM55 (setting [16]), 12.5 µM. Further, the IC90 with M. mycetomatis MM55 (setting [13]) was more than 25 µM; with M. mycetomatis MM55 (setting [15]), 24.2 µM; in the test with M. mycetomatis MM55 (setting [17]) it was 21.6 µM. Further, the “Inhibits growth of Madurella tropicana at 25 μM” value in test [4] is on record as “inhibit the growth”. Also, the “Inhibits growth of Medicopsis romeroi at 25 μM” value in test [5] is “inhibit the growth”.

Turning to `Cc1ccc(NC(=O)c2cc(Cl)ccc2O)cc1` [MMV1578897], in the test with M. mycetomatis, the “Drug static or cidal” value is “Static”. The activity at 25 µM in test [3] (setting [18]) was determined as 4.86%; in test [3] (setting [8]), 3.43%; in test [3] (setting [9]), 0.378%; in test [3] (setting [10]), 10.8%. Further, the activity at 100 µM in test [3] (setting [19]) came to 2.02%; in test [3] (setting [20]), 2.19%; in test [3] (setting [21]), 0.189%; in test [3] (setting [22]), 3.69%. Besides, the IC50 in the test with M. mycetomatis MM55 (setting [23]), in the test on M. mycetomatis MM55 (setting [25]), in the test with M. mycetomatis MM55 (setting [27]) and in the test with M. mycetomatis MM55 (setting [29]) was more than 25 µM each time. Further, the 90% effect concentration (IC90) in the test on M. mycetomatis MM55 (setting [24]), in the test on M. mycetomatis MM55 (setting [26]), with M. mycetomatis MM55 (setting [28]) and in the test with M. mycetomatis MM55 (setting [30]) was more than 25 µM throughout.

As to `CCN(CC)CCn1c(=N)n(CC(O)COc2ccc(Cl)cc2Cl)c2ccccc21` (stereo not drawn) [MMV000725], the MIC50 is 16 µM (≈ 7.22 µg/mL) in test [6] (median MIC over ten M. mycetomatis isolates, no asterisk, read-out: MIC50) and less than 16 µM in test [6] (ten isolates, read-out: MIC50 mean). The MIC in test [6] (isolate CBS247.48, read-out: MIC CBS247.48) was more than 16 µM; in test [6] (isolate MM14, read-out: MIC MM14), more than 16 µM; in test [6] (isolate MM45, read-out: MIC MM45) it was more than 16 µM; in test [6] (isolate MM55, read-out: MIC MM55) it was more than 16 µM; in test [6] (isolate P1, read-out: MIC P1), more than 16 µM; in test [6] (isolate ParijsAl1, read-out: MIC ParijsAl1), more than 16 µM. Also, the MIC in test [6] (isolate Peru72012, read-out: MIC Peru72012) was more than 16 µM; in test [6] (isolate So1, read-out: MIC So1), 16 µM (≈ 7.22 µg/mL); in test [6] (isolate i1, read-out: MIC i1), 16 µM (≈ 7.22 µg/mL); in test [6] (isolate i11, read-out: MIC i11) it was more than 16 µM. In addition, in the test on M. mycetomatis, the “Drug static or cidal” value is “Cidal”. Moreover, the activity at 25 µM in test [3] (setting [18]) came out at 2.68%; in test [3] (setting [8]), 3.92%; in test [3] (setting [9]), 1.56%; in test [3] (setting [10]), 2.57%. Moreover, the activity at 100 µM in test [3] (setting [19]) was found to be 4.47%; in test [3] (setting [20]), 4.59%; in test [3] (setting [21]), 3.57%; in test [3] (setting [22]), 5.25%. The IC50 turned out to be 8.21 µM in the test with M. mycetomatis MM55 (MM55, Table 2, M. mycetomatis MM55, read-out: IC50); 8.22 µM in the test on M. mycetomatis MM55 (setting [23]); 2.8 µM in the test on M. mycetomatis MM55 (setting [25]); 9.6 µM with M. mycetomatis MM55 (setting [27]); 12.2 µM in the test on M. mycetomatis MM55 (setting [29]). The IC90 in the test with M. mycetomatis MM55 (setting [24]) worked out at 18.7 µM; in the test with M. mycetomatis MM55 (setting [26]), 13.2 µM; in the test with M. mycetomatis MM55 (setting [28]), 21.1 µM; in the test on M. mycetomatis MM55 (setting [30]), 21.8 µM.

For `Oc1cccc(C(Nc2nccs2)c2ccc3cccnc3c2O)c1` (stereo not drawn) [MMV642550], the “Drug static or cidal” value in the test on M. mycetomatis was “Cidal”. Moreover, the activity at 25 µM is 1.21% in test [3] (setting [7]), -5.33% in test [3] (setting [8]), 6.92% in test [3] (setting [9]) and 2.03% in test [3] (setting [10]). The activity at 100 µM in test [3] (setting [31]) came out at 4.63%; in test [3] (setting [11]) it was 8.03%; in test [3] (setting [32]) it was 8.66%; in test [3] (setting [33]), 10.8%. The IC50 with M. mycetomatis MM55 (setting [23]), in the test on M. mycetomatis MM55 (setting [12]), in the test on M. mycetomatis MM55 (setting [14]) and in the test on M. mycetomatis MM55 (setting [16]) was more than 25 µM each time. Further, the IC90 in the test with M. mycetomatis MM55 (setting [24]), in the test with M. mycetomatis MM55 (setting [13]), in the test on M. mycetomatis MM55 (setting [15]) and in the test with M. mycetomatis MM55 (setting [17]) was more than 25 µM each time.

As to `OC(Cn1cncn1)(Cn1cncn1)c1ccc(F)cc1F` [fluconazole], the “Inhibits growth of Madurella pseudomycetomatis at 25 μM” value in test [2] is listed as “inhibit the growth”. The “Inhibits growth of Madurella mycetomatis at 25 μM” value in test [3] was “not M. mycetomatis and M. tropicana”. For the same compound, the “Inhibits growth of Madurella tropicana at 25 μM” value in test [4] is “not M. mycetomatis and M. tropicana”.

Turning to `Clc1ccc(Cn2c(CN3CCCC3)nc3ccccc32)cc1` [MMV002015], in the test on M. mycetomatis, the “Drug static or cidal” value was “Cidal”. Besides, the activity at 25 µM was 6.67% in test [3] (setting [7]), 9.47% in test [3] (setting [8]), -1.23% in test [3] (setting [9]) and 11.8% in test [3] (setting [10]). Moreover, the activity at 100 µM in test [3] (setting [31]) worked out at 3.95%; in test [3] (setting [11]) it was 4.96%; in test [3] (setting [32]) it was 6.49%; in test [3] (setting [33]) it was 4.45%. Besides, the IC50 in the test with M. mycetomatis MM55 (setting [23]), with M. mycetomatis MM55 (setting [12]), in the test with M. mycetomatis MM55 (setting [14]) and in the test with M. mycetomatis MM55 (setting [16]) was more than 25 µM throughout. Also, the IC90 with M. mycetomatis MM55 (setting [24]), in the test with M. mycetomatis MM55 (setting [13]), in the test on M. mycetomatis MM55 (setting [15]) and in the test with M. mycetomatis MM55 (setting [17]) was more than 25 µM in each case.

Usually IC50 stands for the concentration that inhibits the measured activity by half. For orientation: IC90 means the concentration needed for an effect of 90%. Usually MIC50 stands for the lowest concentration that inhibits either 50% of growth or 50% of the strains tested, depending on the study. In general, MIC refers to the smallest concentration in the dilution series that meets the test's criterion for growth inhibition.
